Patent US20050101783A1, “N-(heterocycle-methyl)alkylamine derivative, process for producing the same, and bactericide” (priority 2000, published 2005)

Legend:
cucumber gray mold = test: Preventive effect test of cucumber gray mold (wettable powder sprayed on potted cucumber, preventive value); type: in vivo; details: wettable powder suspended at 250 mg/l, sprayed on potted cucumber at 100 l/10 a; morbidity investigated 4th to 6th day after inoculation
Description: (Preventive Effect Test of Cucumber Gray Mold)
The wettable powders obtained by using each compound were diluted with water and were suspended at a predetermined concentration (250 mg/l) and the solution was sprayed over the first to second leaf stage-cucumber (variety: “Sagamihanpakufushinari”) cultivated by using a square plastic pot (size: 6.4 cm×6.4 cm) at a rate of 100 1/10 a.
After the sprayed leaves were air-dried, a paper disk where the solution of the spore of the gray mold suspended with water was impregnated was put on the aforementioned sprayed leaves, and the leaves were contracted in a glass greenhouse (temperature: 20 to 24° C. and relative humidity: 20 to 70 RH). The morbidity rate was investigated based on the following investigation standard on 4th to 6th day after the inoculation and the preventive value was calculated according to the following formula 2.

[1] = system: Erysiphe graminis f. sp tritici; test: Preventive effect test of wheat powdery mildew (wettable powder sprayed on potted wheat, preventive value); type: in vivo; details: wettable powder suspended at 250 mg/l, sprayed on potted wheat at 100 l/10 a; morbidity investigated 9th to 14th day after inoculation
Description: (Preventive Effect Test of Erysiphe graminis f. sp […])
The wettable powders obtained by using each compound were diluted with water and were suspended at a predetermined concentration (250 mg/l) and the solution was sprayed over the first to second leaf stage-wheat (variety. Agriculture and Forestry No. 64) cultivated by using a square plastic pot (size: 6.4 cm×6.4 cm) at a rate of 100 1/10 a (are).
After the sprayed leaves were air-dried, the suspension of the spore of Erysiphe graminis f. sp tritici germ sampled from the contracted leaves were sprayed and inoculated over the sprayed leaf after air-dried, the leaves were kept at 20 to 24° C. under a high-humidity condition for 24 hours, then, the leaves were subjected to still standing in a greenhouse (temperature: 20 to 24° C. and relative humidity: 20 to 70 RH). The morbidity rate was investigated based on the following investigation standard on 9th to 14th day after the inoculation and the preventive value was calculated according to the following formula 1.

cucumber powdery mildew = test: Preventive effect of cucumber powdery mildew (wettable powder sprayed on potted cucumber, preventive value); type: in vivo; details: wettable powder suspended at 100 mg/l, sprayed on potted cucumber at 100 l/10 a; morbidity investigated 9th to 14th day after inoculation
Description: (Preventive Effect of Cucumber Powdery Mildew)
The wettable powders obtained by using each compound were diluted with water and were suspended at a predetermined concentration (100 mg/l) and the solution was sprayed over the first to second leaf stage-cucumber (variety: “Sagamihanpakufushinari”) cultivated by using a square plastic pot (size: 6.4 cm×6.4 cm) at a rate of 100 1/10 a.
After the sprayed leaves were air-dried, the spore was inoculated over the aforementioned air-dried leaves from the contracted leaves with a brush, and the contraction was performed in a glass greenhouse (temperature: 20 to 24° C. and relative humidity: 20 to 70 RH). The morbidity rate was investigated based on the same investigation standard as that in the preventive effect test of the cucumber gray mold on 9th to 14th day after the inoculation, and the preventive value was calculated according to the aforementioned formula 2.

Aspergillus fumigatus = test: Antibacterial test to Aspergillus fumigatus (96-hole plate, IC80); type: cell-based; details: YNB culture with 0.22% low melting point-agarose, 1×10^4 cell/ml, 25° C., 72 hours, absorbance at 620 nm
Description: (Antibacterial Test to Aspergillus fumigatus)
In the test example, a test was performed on the antibacterial of the compounds according to the present invention to Aspergillus fumigatus in the method later described.
Aspergillus fumigatus was cultivated in Sabouraud's agar at 37° C. for 3 days, after the spores to be used for the test were formed, the spore suspension was prepared. The spore suspension was suspended in YNB culture to which a 0.22% low melting point-agarose was added so as to allow the final concentration to be 1×10^4 cell/ml, and the solution was poured into each hole on a 96-hole flat-bottomed plate. Next, the dilution trains using each of the compounds according to the present invention were added, the solution was cultivated at 25° C. for 72 hours, and the propagation rate of the mold was evaluated by measuring the absorbance at 620 nm. With such a test, the propagation rate of the mold in the chemical-free test area was compared with this case to find the concentration of the compound where the propagation rate of the mold is suppressed by 80% as IC 80 (80% growth inhibition concentration).

CN(Cc1ccc(Cl)nc1)CC(C)(C)Cc1ccc(OCC(F)(F)C(F)(F)F)cc1 [Compound I-85]
Preventive Value (%) (cucumber gray mold): 100%
Preventive Value (%) [1]: 100%
Preventive Value (%) (cucumber powdery mildew): 100%

CN(Cc1ccc(Br)nc1)CC(C)(C)Cc1ccc(OC(F)(F)F)cc1 [Compound I-139]
Preventive Value (%) (cucumber gray mold): 100%
Preventive Value (%) [1]: 100%
Preventive Value (%) (cucumber powdery mildew): 100%

CON=C(C)c1ccc(CC(C)(C)CN(C)Cc2ccc(Cl)nc2)cc1 [Compound I-116]
Preventive Value (%) (cucumber gray mold): 100%
Preventive Value (%) [1]: 100%
Preventive Value (%) (cucumber powdery mildew): 100%

CN(Cc1ccc(Cl)nc1)CC(C)(C)Cc1ccc(OC(F)(F)C(F)F)cc1 [Compound I-83]
Preventive Value (%) (cucumber gray mold): 100%
Preventive Value (%) [1]: 100%
Preventive Value (%) (cucumber powdery mildew): 100%

COC(C)c1ccc(CC(C)(C)CN(C)Cc2ccc(Cl)nc2)cc1 (stereo not drawn) [Compound I-95]
Preventive Value (%) (cucumber gray mold): 100%
Preventive Value (%) [1]: 100%
Preventive Value (%) (cucumber powdery mildew): 100%

Cn1cc(CNCC(C)(C)Cc2ccc(F)cc2F)cn1 [Compound I-9]
80% Growth Inhibition Concentration (IC80) (Aspergillus fumigatus): 150 µg/mL

CC(C)(CNCc1ccc(Cl)nc1)Cc1ccccc1Cl [Compound I-3]
80% Growth Inhibition Concentration (IC80) (Aspergillus fumigatus): 9 µg/mL

Cn1cc(CNCC(C)(C)Cc2ccccc2F)cn1 [Compound I-7]
80% Growth Inhibition Concentration (IC80) (Aspergillus fumigatus): 150 µg/mL

CN(Cc1ccc(Cl)nc1)CC(C)(C)Cc1ccc(OC(C)(C)C)cc1 [Compound I-73]
Preventive Value (%) (cucumber gray mold): 100%
Preventive Value (%) [1]: 100%
Preventive Value (%) (cucumber powdery mildew): 100%

CCOC(C)c1ccc(CC(C)(C)CN(C)Cc2ccc(Cl)nc2)cc1 (stereo not drawn) [Compound I-96]
Preventive Value (%) (cucumber gray mold): 100%
Preventive Value (%) [1]: 100%
Preventive Value (%) (cucumber powdery mildew): 100%

CCOCc1ccc(CC(C)(C)CN(C)Cc2ccc(Cl)nc2)cc1 [Compound I-89]
Preventive Value (%) (cucumber gray mold): 100%
Preventive Value (%) [1]: 100%
Preventive Value (%) (cucumber powdery mildew): 100%

CN(Cc1ccc(Cl)nc1)CC(C)(C)CCc1cccc(Oc2ccccc2)c1 [Compound I-55]
Preventive Value (%) (cucumber powdery mildew): 100%

CN(Cc1cnc(Cl)s1)CC(C)(C)Cc1ccc(OC(F)(F)F)cc1 [Compound I-142]
Preventive Value (%) (cucumber gray mold): 100%
Preventive Value (%) [1]: 100%
Preventive Value (%) (cucumber powdery mildew): 100%

CCON=C(C)c1ccc(CC(C)(C)CN(C)Cc2ccc(Cl)nc2)cc1 [Compound I-117]
Preventive Value (%) (cucumber gray mold): 100%
Preventive Value (%) [1]: 100%
Preventive Value (%) (cucumber powdery mildew): 100%

COCc1ccc(CC(C)(C)CN(C)Cc2ccc(Cl)nc2)cc1 [Compound I-88]
Preventive Value (%) (cucumber gray mold): 100%
Preventive Value (%) [1]: 100%
Preventive Value (%) (cucumber powdery mildew): 100%

CCC(=NOC)c1ccc(CC(C)(C)CN(C)Cc2ccc(Cl)nc2)cc1 [Compound I-121]
Preventive Value (%) (cucumber gray mold): 100%
Preventive Value (%) [1]: 100%
Preventive Value (%) (cucumber powdery mildew): 100%

CC(C)(CNCc1cnc(Cl)cn1)Cc1ccc(C(C)(C)C)cc1 [Compound I-5]
80% Growth Inhibition Concentration (IC80) (Aspergillus fumigatus): 9 µg/mL

CN(Cc1ccc(Cl)nc1)CC(C)(C)Cc1ccc(OCC(F)(F)F)cc1 [Compound I-82]
Preventive Value (%) (cucumber gray mold): 100%
Preventive Value (%) [1]: 100%
Preventive Value (%) (cucumber powdery mildew): 100%

CN(Cc1ccc(C(F)(F)F)nc1)CC(C)(C)Cc1ccc(OC(F)(F)F)cc1 [Compound I-141]
Preventive Value (%) (cucumber gray mold): 100%
Preventive Value (%) [1]: 100%
Preventive Value (%) (cucumber powdery mildew): 100%

CN(Cc1ccc(F)nc1)CC(C)(C)Cc1ccc(C(C)(C)C)cc1 [Compound I-19]
Preventive Value (%) (cucumber gray mold): 100%
Preventive Value (%) [1]: 100%
Preventive Value (%) (cucumber powdery mildew): 100%

CC(CCc1ccc(Cl)cc1Cl)CN(C)Cc1ccc(Cl)nc1 (stereo not drawn) [Compound I-56]
Preventive Value (%) [1]: 100%
Preventive Value (%) (cucumber powdery mildew): 100%

CN(Cc1ccc(Cl)nc1)CC(C)(C)Cc1ccc(OCC(F)(F)C(F)F)cc1 [Compound I-84]
Preventive Value (%) (cucumber gray mold): 100%
Preventive Value (%) [1]: 100%
Preventive Value (%) (cucumber powdery mildew): 100%

CN(Cc1ccc(Cl)nc1)CC(C)(C)Cc1ccc2c(c1)OC(F)(F)O2 [Compound I-49]
Preventive Value (%) [1]: 100%
Preventive Value (%) (cucumber powdery mildew): 100%

CC(Cc1cccc(Cl)c1)CN(C)Cc1ccc(Cl)nc1 (stereo not drawn) [Compound (b), 6-chloro-N-methyl-N-[2-methyl-3-(3-chlorophenyl)propyl]-3-pyridylmethylamine, reference compound]
Preventive Value (%) (cucumber gray mold): 30%
Preventive Value (%) [1]: 70%
Preventive Value (%) (cucumber powdery mildew): 80%

CC(C)Oc1ccc(CC(C)(C)CN(C)Cc2ccc(Cl)nc2)cc1 [Compound I-74]
Preventive Value (%) (cucumber gray mold): 100%
Preventive Value (%) [1]: 100%
Preventive Value (%) (cucumber powdery mildew): 100%

CN(Cc1ccc(F)nc1)CC(C)(C)Cc1ccc(OC(F)(F)F)cc1 [Compound I-140]
Preventive Value (%) (cucumber gray mold): 100%
Preventive Value (%) [1]: 100%
Preventive Value (%) (cucumber powdery mildew): 100%

CC(Cc1ccc(Cl)cc1Cl)CN(C)Cc1ccc(Cl)nc1 (stereo not drawn) [Compound (a), 6-chloro-N-methyl-N-[2-methyl-3-(2,4-dichlorophenyl)propyl]-3-pyridylmethylamine, reference compound]
Preventive Value (%) (cucumber gray mold): 80%
Preventive Value (%) [1]: 60%
Preventive Value (%) (cucumber powdery mildew): 70%

CC(C)(CNCc1ccccn1)Cc1ccc(C(C)(C)C)cc1 [Compound I-1]
80% Growth Inhibition Concentration (IC80) (Aspergillus fumigatus): 5 µg/mL

CC(C)(CNCc1ccc(Cl)nc1)Cc1ccc(C(C)(C)C)cc1 [Compound I-2]
80% Growth Inhibition Concentration (IC80) (Aspergillus fumigatus): 38 µg/mL
Preventive Value (%) [1]: 100%
